According to patent publication US6630496B1, “Inhibitors of phospholipase enzymes” (Genetics Institute LLC, priority 1996, dated 2003):

Assays:
[1] = molecular target: T1, cPLA2 (Homo sapiens, UniProt P47712); assay: Coumarine assay (7-hydroxycoumarinyl 6-heptenoate hydrolysis); assay type: biochemical
T1 sequence (P47712 1-749): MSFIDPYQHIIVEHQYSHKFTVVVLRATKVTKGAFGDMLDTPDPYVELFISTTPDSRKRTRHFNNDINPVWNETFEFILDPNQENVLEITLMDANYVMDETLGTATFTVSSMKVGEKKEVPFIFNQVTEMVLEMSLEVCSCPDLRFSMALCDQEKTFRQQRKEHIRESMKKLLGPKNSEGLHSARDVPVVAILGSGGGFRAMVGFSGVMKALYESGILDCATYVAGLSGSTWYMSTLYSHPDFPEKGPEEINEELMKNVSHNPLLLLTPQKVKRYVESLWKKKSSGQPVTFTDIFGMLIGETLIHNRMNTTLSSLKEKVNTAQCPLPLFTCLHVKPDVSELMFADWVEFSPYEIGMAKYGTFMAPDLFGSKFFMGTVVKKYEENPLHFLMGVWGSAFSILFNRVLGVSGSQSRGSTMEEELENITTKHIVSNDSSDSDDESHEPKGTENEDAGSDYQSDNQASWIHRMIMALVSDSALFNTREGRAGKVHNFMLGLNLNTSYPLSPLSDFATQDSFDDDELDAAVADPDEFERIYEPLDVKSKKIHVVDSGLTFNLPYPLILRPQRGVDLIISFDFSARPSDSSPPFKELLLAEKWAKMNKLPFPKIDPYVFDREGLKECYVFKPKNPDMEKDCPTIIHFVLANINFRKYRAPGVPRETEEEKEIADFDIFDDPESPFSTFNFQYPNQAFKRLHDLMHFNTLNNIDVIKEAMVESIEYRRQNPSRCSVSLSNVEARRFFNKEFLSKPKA
Experimental: 7-hydroxycoumarinyl 6-heptenoate was used as a monomeric substrate for cPLA2 as reported previously (Huang, Z. et al., 1994, Analytical Biochemistry 222, 110-115). Inhibitors were mixed with 200 μL assay buffer (80 mM Hepes, pH 7.5, 1 mM EDTA) containing 60 μM 7-hydroxycoumarinyl 6-heptenoate. The reaction was initiated by adding 4 μg cPLA2 in 50 μL assay buffer. Hydrolysis of the 7-hydroxycoumarinyl 6-heptenoate ester was monitored in a fluorometer by exciting at 360 nm and monitoring emission at 460 nm. Enzyme activity is proportional to the increasein emission at 460 nm per minute. In the presence of a cPLA2 inhibitor, the rate of increase is less.

[2] = molecular target: T1, cPLA2; assay: Soluble substrate assay (LysoPC); assay type: biochemical
Experimental: (b) Soluble Substrate Assay (LysoPC)
The lipid was resuspended by vortexing 80 mM Hepes pH 7.5, 1 mM EDTA (1.2×final concentration). A typical assay consisted of lipid suspension (85 μl) to which was added consecutively the inhibitor (5 μl in DMSO) and cPLA2, 200 ng in 80 mM Hepes pH 7.5, 2 mM DTT and […]. This assay was conducted by either the manual assay or automated assay protocol described below.

[3] = 60 μM 7-hydroxycoumarinyl 6-heptenoate, read-out: IC50 (μM) Coumarine
[4] = NA = inhibitory activity not detected, read-out: IC50 (μM) Lyso PC

5-(2-(5-(3,5-Dibromo)benzyloxy-1-(3,5-bis(trifluoromethyl)phenoxyacetyl)indolinyl)methylthioacetamido)benzene-1,3-dicarboxylic Acid [Example 45]
IC50 [1, 3]: 5 µM
IC50 [2, 4]: 0.37 µM

O=C(O)CSCC1Cc2cc(OCc3ccccc3)ccc2N1C(=O)COc1cc(C(F)(F)F)cc(C(F)(F)F)c1 (stereo not drawn) [Example 37, 2-(5-Benzyloxy-1-(3,5-bis(trifluoromethyl)phenoxyacetyl)indolinyl)methylthioacetic Acid]
IC50 [1, 3]: > 30 µM
IC50 [2, 4]: 7.6 µM

O=C(CSCC1Cc2cc(OCc3ccccc3)ccc2N1Cc1ccc(C(F)(F)F)cc1C(F)(F)F)Nc1cccc(C(=O)O)c1 (stereo not drawn) [Example 74]
IC50 [1, 3]: 5 µM
IC50 [2, 4]: 1.1 µM

5-(2-(-5-Benzyloxy-1-(3,5-bis(trifluoromethyl)phenoxyacetyl)indolinyl)methylthioacetamido)benzene-1,3-dicarboxylic Acid [Example 38]
IC50 [1, 3]: > 50 µM
IC50 [2, 4]: 6.9 µM

O=C(O)c1ccccc1SCC1Cc2cc(OCc3ccccc3)ccc2N1Cc1ccc(Cc2ccccc2)cc1 (stereo not drawn) [Example 78]
IC50 [1, 3]: 3 µM

CC(=O)c1cc(NC(=O)CSCC2Cc3cc(OCc4ccccc4)ccc3N2C(=O)COc2cc(C(F)(F)F)cc(C(F)(F)F)c2)cc(C(=O)O)c1 (stereo not drawn) [Example 40]
IC50 [1, 3]: 11 µM
IC50 [2, 4]: 6.2 µM

3-(2-(5-Benzyloxy-1-tert-butoxycarbonyl)indolinyl)methylsulfonylacetamidobenzoic Acid [Example 64]
IC50 [1, 3]: > 64 µM
IC50 [2, 4]: 17.6 µM

COc1ccc(C(=O)O)cc1NC(=O)CSCC1Cc2cc(OCc3ccccc3)ccc2N1C(=O)COc1ccc2ccccc2c1 (stereo not drawn) [Example 59, 3-(2-(5-Benzyloxy-1-(2-naphthoxyaceiyl)indolinyl)methylthioacetamido)4-methoxybenzoic Acid]
IC50 [1, 3]: > 30 µM
IC50 [2, 4]: 8.7 µM

CCC(C)(C)c1ccc(OCC(=O)c2c(CSCC(=O)Nc3cc(C(=O)O)ccc3OC)n(C)c3ccc(OC)cc23)c(C(C)(C)CC)c1 [Example 12, 3-(2-(3-(2,4-bis(1,1-Dimethypropyl)phenoxyacetyl)-5-methoxy-1-methyl)indolyl)methylthioacetamido-4-methoxybenzoic Acid]
IC50 [1]: 10 µM
IC50 [2]: 4 µM

C=CCN(C(=O)CSCC1Cc2cc(OCc3ccccc3)ccc2N1C(=O)COc1ccc(C(C)(C)CC)cc1C(C)(C)CC)c1cc(C(=O)O)ccc1OC (stereo not drawn) [Example 71]
IC50 [1, 3]: 12 µM
IC50 [2, 4]: 5.9 µM

O=C(CSCC1Cc2cc(OCc3ccccc3)ccc2N1Cc1ccc2ccccc2c1)Nc1cccc(C(=O)O)c1 (stereo not drawn) [Example 73, 3-(2-(5-Benzyloxy-1-(2-naphthyl)methy)indolinyl)methylthioacetamidobenzoic Acid]
IC50 [1, 3]: 6 µM
IC50 [2, 4]: 1.9 µM

O=C(CSCC1Cc2cc(OCc3ccccc3)ccc2N1CCc1ccncc1)Nc1cccc(C(=O)O)c1 (stereo not drawn) [Example 72]
IC50 [1, 3]: > 64 µM

COc1ccc(COc2ccc3c(c2)CC(CNC(=O)Nc2cc(C(=O)O)cc(C(=O)O)c2)N3Cc2ccc(C(F)(F)F)cc2C(F)(F)F)cc1 (stereo not drawn) [Example 86]
IC50 [1, 3]: 17 µM

CS(=O)(=O)NC(=O)C1Cc2ccccc2N1Cc1ccc(C(F)(F)F)cc1C(F)(F)F (stereo not drawn) [Example 84, N-Methylsulfonyl-2-(1-(2,4-bis(trifluoromethyl)benzyl)indolinyl)carboxamide]
IC50 [1, 3]: > 50 µM
IC50 [2, 4]: 23 µM

5-(2-(-5-Benzyloxy-1-(3,5-bis(trifluoromethyl)phenoxyacetyl)indolinyl)methylthioacetamido)-3-hydroxymethylbenzoic Acid [Example 41]
IC50 [1, 3]: 22 µM
IC50 [2, 4]: 2.2 µM

5-(2-(-5-Hydroxy-1-(3,5-bis(trifluoromethyl)phenoxyacetyl)indolinyl)methylthioacetamido)benzene-1,3-dicarboxylic Acid [Example 44]
IC50 [1, 3]: > 30 µM
IC50 [2, 4]: 27 µM

O=C(O)c1ccc(CN2c3ccc(OCc4ccccc4)cc3CC2COCc2ccc3ccccc3c2)cc1 (stereo not drawn) [Example 81]
IC50 [1, 3]: 15 µM
IC50 [2, 4]: 3.2 µM

CNC(=O)c1cc(NC(=O)CSCC2Cc3cc(OCc4ccccc4)ccc3N2C(=O)COc2cc(C(F)(F)F)cc(C(F)(F)F)c2)cc(C(=O)O)c1 (stereo not drawn) [Example 43]
IC50 [1, 3]: 21 µM
IC50 [2, 4]: 7.1 µM

3-(2-(-5-Benzyloxy-1-(2,4-bis(1,1-dimethy)propyl)phenoxyacetyl)indolinyl)methylthioacetamido-4-methylbenzoic Acid [Example 18]
IC50 [1, 3]: 10 µM
IC50 [2, 4]: 0.28 µM

COc1ccc(C(=O)O)cc1NC(=O)CSCC1Cc2cc(OCc3ccccc3)ccc2N1Cc1ccc(C(F)(F)F)cc1C(F)(F)F (stereo not drawn) [Example 75]
IC50 [1, 3]: 6.2 µM
IC50 [2, 4]: 7 µM

CN(C)C(=O)c1cc(NC(=O)CSCC2Cc3cc(OCc4ccccc4)ccc3N2C(=O)COc2cc(C(F)(F)F)cc(C(F)(F)F)c2)cc(C(=O)O)c1 (stereo not drawn) [Example 39]
IC50 [1, 3]: 18 µM
IC50 [2, 4]: 4.3 µM

COc1ccc(C(=O)O)cc1NC(=O)CSCC1Cc2cc(OCc3ccccc3)ccc2N1C(=O)COc1ccc(Cc2ccccc2)cc1 (stereo not drawn) [Example 60]
IC50 [1, 3]: > 30 µM
IC50 [2, 4]: 4.6 µM

O=C(CSCC1Cc2cc(OCc3ccccc3)ccc2N1C(=O)COc1ccc(C2C=CCC2)cc1C1C=CCC1)Nc1cccc(C(=O)O)c1 (stereo not drawn) [Example 58]
IC50 [1, 3]: 4 µM
IC50 [2, 4]: 0.56 µM

CCC(C)(C)c1ccc(OCC(=O)N2c3ccc(OCc4ccccc4)cc3CC2CSCC(=O)O)c(C(C)(C)CC)c1 (stereo not drawn) [Example 66]
IC50 [1, 3]: 6 µM
IC50 [2, 4]: 2.3 µM

O=C(O)c1ccc(OCc2cc3cc(OCc4ccccc4)ccc3n2C(=O)OCc2ccccc2)cc1 [Example 2, 4-(2-(1-Phenylmethoxycarbonyl-5-phenylmethoxy)indolyl)methoxybenzoic Acid]
IC50 [2]: 6 µM

O=C(O)c1cc(NC(=O)C2Cc3ccccc3N2Cc2ccc(C(F)(F)F)cc2C(F)(F)F)cc(C(=O)O)c1 (stereo not drawn) [Example 83]
IC50 [1, 3]: > 50 µM
IC50 [2, 4]: > 50 µM

CC(C)(c1ccccc1)c1ccc(OCC(=O)N2c3ccc(OCc4ccccc4)cc3CC2CSCC(=O)Nc2cccc(C(=O)O)c2)c(C(C)(C)c2ccccc2)c1 (stereo not drawn) [Example 56]
IC50 [1, 3]: 5 µM
IC50 [2, 4]: 0.47 µM

O=C(O)c1ccc(CN2c3ccc(OCc4ccccc4)cc3CC2COCc2ccc(C(F)(F)F)cc2C(F)(F)F)cc1 (stereo not drawn) [Example 80, 4-(1-(5-Benzyloxy-2-(bis-2,4-trifluoromethyl)benzyloxymethyl)indolinyl)methylbenzoic Acid]
IC50 [1, 3]: 16 µM

O=C(NS(=O)(=O)c1ccccc1)C1Cc2ccccc2N1Cc1ccc(C(F)(F)F)cc1C(F)(F)F (stereo not drawn) [Example 85]
IC50 [1, 3]: > 50 µM
IC50 [2, 4]: 21 µM

O=C(O)c1cccc(OCc2cc3cc(OCc4ccccc4)ccc3n2C(=O)OCc2ccccc2)c1 [Example 3, 3-(2-(1-Phenylmethoxycarbonyl-5-phenylmethoxy)indolyl)methoxybenzoic Acid]
IC50 [1]: 14 µM
IC50 [2]: 6.5 µM

CC(O)c1cc(NC(=O)CSCC2Cc3cc(OCc4ccccc4)ccc3N2C(=O)COc2cc(C(F)(F)F)cc(C(F)(F)F)c2)cc(C(=O)O)c1 (stereo not drawn) [Example 42]
IC50 [1, 3]: 14 µM
IC50 [2, 4]: 7.8 µM

3-(N-(2-(-5-Benzyloxy-1-(2,4-bis(1,1-dimethy)propyl)phenoxyacetyl)indolinyl)methylthioethyl)aminobenzoic Acid [Example 69]
IC50 [1, 3]: 6 µM
IC50 [2, 4]: 19.4 µM

O=C(O)c1cccc(NC(=O)c2cc3cc(OCc4ccccc4)ccc3n2Cc2ccccc2)c1 [Example 5, 3-(2-(1-Benzyl-5-benzyloxy)indolecarboxamido)benzoic Acid]
IC50 [1]: 52 µM
IC50 [2]: 4.3 µM

CCC(C)(C)c1ccc(CCCCn2c(C(=O)Nc3cc(C(=O)O)ccc3OC)cc3cc(OCc4ccccc4)ccc32)c(C(C)(C)CC)c1 [Example 6]
IC50 [1]: 6 µM
IC50 [2]: 2 µM

O=C(O)c1cc(NC(=O)c2cc3cc(OCc4ccccc4)ccc3n2Cc2ccc3ccccc3c2)cc(C(=O)O)c1 [Example 7]
IC50 [1]: 15 µM
IC50 [2]: 2.1 µM

O=C(O)c1ccccc1OCc1cc2cc(OCc3ccccc3)ccc2n1C(=O)OCc1ccccc1 [Example 1, 2-(2-(1-Phenylmethoxycarbonyl-5-phenylmethoxy)indolyl)methoxybenzoic Acid]
IC50 [2]: 47 µM
